# Results: patent publication US11472798B2 (Mission Therapeutics Limited, priority 2014, dated 2022)
# Target: T1, UCHL1 (Homo sapiens, UniProt P09936)
# T1 construct: made in house; host or cells: HEK293T
# T1 sequence (P09936 1-223): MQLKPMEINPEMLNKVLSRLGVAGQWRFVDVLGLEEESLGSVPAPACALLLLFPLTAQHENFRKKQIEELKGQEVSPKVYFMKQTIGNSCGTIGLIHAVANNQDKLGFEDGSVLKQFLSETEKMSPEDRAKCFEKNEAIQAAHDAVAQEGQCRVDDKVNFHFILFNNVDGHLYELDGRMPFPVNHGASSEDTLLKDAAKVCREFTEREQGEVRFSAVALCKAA
# Test: UCHL1 biochemical IC50 assay (fluorescence polarisation)
# Conditions: 30 min enzyme/compound pre-incubation at room temp, read after 2 hr incubation, read-out: Activity range (UCHL1 biochemical IC50 assay)
# Summary of the method: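 FLAG-UCHL1 purified from transfected HEK293T cells was preincubated 30 min at room temperature with compound (8 points, 100–0.03 μM final) in Tris pH 7.5 buffer with Tween 20, BSA and beta-mercaptoethanol. Reaction started with 50 nM TAMRA-peptide–ubiquitin isopeptide substrate; fluorescence polarisation (ex 540/em 590 nm) read at once and after 2 h.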
row,Structure (SMILES),IC50 [nM]
1,"Cc1ccc(-c2ccc(NC(=O)C3CCN(C#N)C3)nc2)cc1 (stereo not drawn) [Example 134, 1-cyano-N-(5-(p-tolyl)pyridin-2-yl)pyrrolidine-3-carboxamide]",1000 to 10000
2,"Cc1cccc(-c2ccc(NC(=O)C3CCN(C#N)C3)nc2)c1 (stereo not drawn) [Example 135, 1-cyano-N-(5-(m-tolyl)pyridin-2-yl)pyrrolidine-3-carboxamide]",1000 to 10000
3,"Cc1ccccc1-c1ccc(NC(=O)C2CCN(C#N)C2)nc1 (stereo not drawn) [Example 136, 1-cyano-N-(5-(o-tolyl)pyridin-2-yl)pyrrolidine-3-carboxamide]",1000 to 10000
4,"Cc1noc(C)c1-c1ccc2nc(NC(=O)[C@H]3CCN(C#N)C3)sc2c1C [Example 138, (S)-1-cyano-N-(6-(3,5-dimethylisoxazol-4-yl)-7-methylbenzo[d]thiazol-2-yl)pyrrolidine-3-carboxamide]",< 1000
5,"Cc1c(-c2cnn(C)c2)ccc2nc(NC(=O)[C@H]3CCN(C#N)C3)sc12 [Example 139, (S)-1-cyano-N-(7-methyl-6-(1-methyl-1H-pyrazol-4-yl)benzo[d]thiazol-2-yl)pyrrolidine-3-carboxamide]",< 1000
6,"N#CN1CCC(C(=O)Nc2ncc(CN3CCOCC3)s2)C1 (stereo not drawn) [Example 140, 1-cyano-N-(5-(morpholinomethyl)thiazol-2-yl)pyrrolidine-3-carboxamide]",< 1000
7,"N#CN1CCC(C(=O)Nc2ncc(CN3CCCC3)s2)C1 (stereo not drawn) [Example 141, 1-cyano-N-(5-(pyrrolidin-1-ylmethyl)thiazol-2-yl)pyrrolidine-3-carboxamide]",1000 to 10000
8,"CC1CN(Cc2cnc(NC(=O)[C@H]3CCN(C#N)C3)s2)CC(C)O1 (stereo partly drawn) [Example 142, (3S)-1-cyano-N-(5-((2,6-dimethylmorpholino)methyl)thiazol-2-yl)pyrrolidine-3-carboxamide]",1000 to 10000
9,"COC[C@H]1CCCN1Cc1cnc(NC(=O)[C@H]2CCN(C#N)C2)s1 [Example 143, (S)-1-cyano-N-(5-(((R)-2-(methoxymethyl)pyrrolidin-1-yl)methyl)thiazol-2-yl)pyrrolidine-3-carboxamide]",1000 to 10000
10,"COC[C@@H]1CCCN1Cc1cnc(NC(=O)[C@H]2CCN(C#N)C2)s1 [Example 144, (S)-1-cyano-N-(5-(((S)-2-(methoxymethyl)pyrrolidin-1-yl)methyl)thiazol-2-yl)pyrrolidine-3-carboxamide]",1000 to 10000
11,"COC[C@H]1CCCN1Cc1cnc(NC(=O)[C@H]2CCN(C#N)[C@H]2C)s1 [Example 145, (2S,3S)-1-cyano-N-(5-(((R)-2-(methoxymethyl)pyrrolidin-1-yl)methyl)thiazol-2-yl)-2-methylpyrrolidine-3-carboxamide]",1000 to 10000
12,"N#CN1CC[C@H](C(=O)Nc2cn(Cc3ccccc3)cn2)C1 [Example 146, (S)—N-(1-benzyl-1H-imidazol-4-yl)-1-cyanopyrrolidine-3-carboxamide]",< 1000
13,"N#CN1CC[C@H](C(=O)Nc2cn(CCc3ccccc3)cn2)C1 [Example 147, (S)-1-cyano-N-(1-phenethyl-1H-imidazol-4-yl)pyrrolidine-3-carboxamide]",< 1000
14,"CC(C)Cn1cnc(NC(=O)[C@H]2CCN(C#N)C2)c1 [Example 148, (S)-1-cyano-N-(1-isobutyl-1H-imidazol-4-yl)pyrrolidine-3-carboxamide]",1000 to 10000
15,"C[C@H]1[C@@H](C(=O)Nc2cn(Cc3ccccc3)cn2)CCN1C#N [Example 149, (2S,3S)—N-(1-benzyl-1H-imidazol-4-yl)-1-cyano-2-methylpyrrolidine-3-carboxamide]",< 1000
16,"N#CN1CC[C@H](C(=O)Nc2cn(-c3ccc(F)cc3)cn2)C1 [Example 150, (S)-1-cyano-N-(1-(4-fluorophenyl)-1H-imidazol-4-yl)pyrrolidine-3-Carboxamide]",< 1000
17,"N#CN1CC[C@H](C(=O)Nc2cn(-c3cccc(F)c3)cn2)C1 [Example 151, (S)-1-cyano-N-(1-(3-fluorophenyl)-1H-imidazol-4-yl)pyrrolidine-3-carboxamide]",< 1000
18,"N#CN1CC[C@H](C(=O)Nc2cn(-c3ccccc3F)cn2)C1 [Example 152, (S)-1-cyano-N-(1-(2-fluorophenyl)-1H-imidazol-4-yl)pyrrolidine-3-carboxamide]",< 1000
19,"N#CN1CC[C@H](C(=O)Nc2cn(-c3ccc(C(F)(F)F)cc3)cn2)C1 [Example 153, (S)-1-cyano-N-(1-(4-(trifluoromethyl)phenyl)-1H-imidazol-4-yl)pyrrolidine-3-carboxamide]",< 1000
20,"N#CN1CC[C@H](C(=O)Nc2cn(-c3cccc(C(F)(F)F)c3)cn2)C1 [Example 154, (S)-1-cyano-N-(1-(3-(trifluoromethyl)phenyl)-1H-imidazol-4-yl)pyrrolidine-3-carboxamide]",< 1000
21,"CNC(=O)c1ccc(-n2cnc(NC(=O)[C@H]3CCN(C#N)C3)c2)cc1 [Example 155, (S)-1-cyano-N-(1-(4-(methylcarbamoyl)phenyl)-1H-imidazol-4-yl)pyrrolidine-3-carboxamide]",< 1000
22,"CNC(=O)c1cccc(-n2cnc(NC(=O)[C@H]3CCN(C#N)C3)c2)c1 [Example 156, (S)-1-cyano-N-(1-(3-(methylcarbamoyl)phenyl)-1H-imidazol-4-yl)pyrrolidine-3-carboxamide]",< 1000
23,"CNC(=O)c1ccccc1-n1cnc(NC(=O)[C@H]2CCN(C#N)C2)c1 [Example 157, (S)-1-cyano-N-(1-(2-(methylcarbamoyl)phenyl)-1H-imidazol-4-yl)pyrrolidine-3-carboxamide]",1000 to 10000
24,"COCCNC(=O)c1ccc(-n2cnc(NC(=O)[C@H]3CCN(C#N)C3)c2)cc1 [Example 158, (S)-1-cyano-N-(1-(4-((2-methoxyethyl)carbamoyl)phenyl)-1H-imidazol-4-yl)pyrrolidine-3-carboxamide]",< 1000
25,"COc1ccc(-n2cnc(NC(=O)[C@H]3CCN(C#N)C3)c2)cc1 [Example 159, (S)-1-cyano-N-(1-(4-methoxyphenyl)-1H-imidazol-4-yl)pyrrolidine-3-carboxamide]",< 1000
26,"COc1ccccc1-n1cnc(NC(=O)[C@H]2CCN(C#N)C2)c1 [Example 160, (S)-1-cyano-N-(1-(2-methoxyphenyl)-1H-imidazol-4-yl)pyrrolidine-3-carboxamide]",< 1000
27,"N#CN1CC[C@H](C(=O)Nc2cn(C3CCOCC3)cn2)C1 [Example 161, (S)-1-cyano-N-(1-(tetrahydro-2H-pyran-4-yl)-1H-imidazol-4-yl)pyrrolidine-3-carboxamide]",< 1000

# Other lines, results leading:
row,IC50 [nM],Structure (SMILES)
1,< 1000,"Cn1nccc1-c1ccc2nc(NC(=O)[C@H]3CCN(C#N)C3)sc2c1 [Example 123, (S)-1-cyano-N-(6-(1-methyl-1H-pyrazol-5-yl)benzo[d]thiazol-2-yl)pyrrolidine-3-carboxamide]"
2,< 1000,"Cn1cc(-c2ccc3nc(NC(=O)[C@H]4CCN(C#N)C4)sc3c2)cn1 [Example 124, (S)-1-cyano-N-(6-(1-methyl-1H-pyrazol-4-yl)benzo[d]thiazol-2-yl)pyrrolidine-3-carboxamide]"
3,< 1000,"Cc1n[nH]c(C)c1-c1ccc2nc(NC(=O)[C@H]3CCN(C#N)C3)sc2c1 [Example 125, (S)-1-cyano-N-(6-(3,5-dimethyl-1H-pyrazol-4-yl)benzo[d]thiazol-1-2-yl)pyrrolidine-3-carboxamide]"
4,< 1000,"Cc1oncc1-c1ccc2nc(NC(=O)[C@H]3CCN(C#N)C3)sc2c1 [Example 126, (S)-1-cyano-N-(6-(5-methylisoxazol-4-yl)benzo[d]thiazol-2-yl)pyrrolidine-3-carboxamide]"
5,< 1000,"Cc1noc(C)c1-c1ccn2cc(NC(=O)[C@H]3CCN(C#N)C3)nc2c1 [Example 127, (S)-1-cyano-N-(7-(3,5-dimethylisoxazol-4-yl)imidazo[1,2-a]pyridin-2-yl)pyrrolidine-3-carboxamide]"
6,< 1000,"Cc1noc(C)c1-c1ccc2nc(NC(=O)[C@H]3CCN(C#N)C3)cn2c1 [Example 128, (S)-1-cyano-N-(6-(3,5-dimethylisoxazol-4-yl)imidazo[1,2-a]pyridin-2-yl)pyrrolidine-3-carboxamide]"
7,< 1000,"N#CN1CC[C@H](C(=O)Nc2cn3cc(C4CC4)ccc3n2)C1 [Example 129, (S)-1-cyano-N-(6-cyclopropylimidazo[1,2-a]pyridin-2-yl)pyrrolidine-3-carboxamide]"
8,< 1000,"N#CN1CCC(C(=O)Nc2nc3ccc(C4CC4)cc3s2)C1 (stereo not drawn) [Example 130, 1-cyan-N-(6-cyclopropylbenzo[d]thiazol-2-yl)pyrrolidine-3-carboxamide]"
9,< 1000,"COc1cc(-c2ccc3nc(NC(=O)[C@H]4CCN(C#N)C4)cn3c2)c(OC)nn1 [Example 131, (S)-1-cyano-N-(6-(3,6-dimethoxypyridazin-4-yl)imidazo[1,2-a]pyridin-2-yl)pyrrolidine-3-carboxamide]"
10,< 1000,"COc1cc(-c2ccc3nc(NC(=O)[C@H]4CCN(C#N)C4)sc3c2)c(OC)nn1 [Example 132, (S)-1-cyano-N-(6-(3,6-dimethoxypyridazin-4-yl)benzo[d]thiazol-2-yl)pyrrolidine-3-carboxamide]"
11,< 1000,"Cc1noc(C)c1-c1ccc2nc(NC(=O)[C@H]3CCN(C#N)[C@H]3C)sc2c1 [Example 133, (2S,3S)-1-cyano-N-(6-(3,5-dimethylisoxazol-4-yl)benzo[d]thiazol-2-yl)-2-methyl-pyrrolidine-3-carboxamide]"
12,< 1000,"Cc1noc(C)c1-c1ccc2nc(NC(=O)[C@H]3CCN(C#N)C3)cn2c1C [Example 137, (S)-1-cyano-N-(6-(3,5-dimethylisoxazol-4-yl)-5-methylimidazo[1,2-a]pyridin-2-yl)pyrrolidine-3-carboxamide]"
